Measurements: US4870085A, “Tryptamine derivatives active on central nervous system” (Bayer Aktiengesellschaft, priority 1984, dated 1989)
pKi: −log10 of the molar value. Counter-ions that a name gives are not always drawn.

What was measured:
[1] = molecular target: 5-HT1 receptor; assay: Interaction with serotonin receptors: 5-HT1 receptor, calf hippocampus, ligand 3H-serotonin; type: binding; conditions: ligand 3H-serotonin (Table 2), read-out: K1
Method: (§1) Interaction with serotonin receptors
(§2) Inhibition constant K1 (nmol l^-1)
Ligand: ^3 H--serotonin
In generally similar manner there were prepared additional compounds which, when tested against 5-HT, receptors as in Example 7, gave the results shown in Table 2.

[2] = molecular target: T1, 5-HT2 receptor (Rattus norvegicus, UniProt P14842); assay: Interaction with serotonin receptors: 5-HT2 receptor, rat prefrontal cortex, ligand 3H-ketanserin; type: binding
T1 construct: rat prefrontal cortex; from tissue; host or cells: rat prefrontal cortex
T1 sequence (P14842 whole entry): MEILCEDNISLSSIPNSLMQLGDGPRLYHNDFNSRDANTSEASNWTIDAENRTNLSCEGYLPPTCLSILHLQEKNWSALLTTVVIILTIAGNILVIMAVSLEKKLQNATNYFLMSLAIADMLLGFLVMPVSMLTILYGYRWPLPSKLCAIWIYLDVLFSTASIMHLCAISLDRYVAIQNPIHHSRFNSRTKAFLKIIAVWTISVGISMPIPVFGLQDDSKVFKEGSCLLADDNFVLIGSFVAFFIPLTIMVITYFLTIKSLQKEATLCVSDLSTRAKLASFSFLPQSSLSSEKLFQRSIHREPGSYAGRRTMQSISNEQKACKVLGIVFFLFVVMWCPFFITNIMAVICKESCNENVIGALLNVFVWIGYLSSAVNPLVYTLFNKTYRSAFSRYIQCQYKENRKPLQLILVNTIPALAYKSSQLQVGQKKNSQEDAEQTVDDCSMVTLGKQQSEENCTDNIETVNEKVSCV
Source text: as §1, §2
5-HT2 receptor Contraction of the
Ligand: ^3 H--ketanserin

| Structure (SMILES) | pKi [1] | pKi [2] |
| --- | --- | --- |
| C[C@@H]1CCC[C@H](C)N1CCc1cn(C(N)=O)c2ccccc12 [compound 13] | 5.74 |  |
| C[C@H]1CCC[C@H](C)N1CCc1c[nH]c2ccccc12 (relative stereo) [compound 29] | 5.52 |  |
| C[C@@H]1CCC[C@H](C)N1CCc1c[nH]c2ccc(OCc3ccccc3)cc12 [compound 11] | 6.70 |  |
| C[C@@H]1CCC[C@H](C)N1CCc1c[nH]c2ccccc12 [compound 19] | 6.10 |  |
| C[C@@H]1CCC[C@H](C)N1CCc1c[nH]c2ccc(C#N)cc12 [compound 28] | 6.62 |  |
| COc1ccc2[nH]cc(CCN3[C@H](C)CCC[C@@H]3C)c2c1 [compound 21] | 7.15 |  |
| Cc1ccc2[nH]cc(CCN3[C@H](C)CCC[C@@H]3C)c2c1 [compound 27] | 7.40 |  |
| C[C@@H]1CCC[C@H](C)N1CCc1cn(C(=O)c2ccccc2)c2ccc(Br)cc12 [compound 36] | 6.00 |  |
| C[C@@H]1CCC[C@H](C)N1CCc1cn(C(=O)OC(C)(C)C)c2ccccc12 [compound 30] | 5.74 |  |
| C[C@@H]1CCC[C@H](C)N1CCc1c[nH]c2ccc(Br)cc12 [compound 18] | 7.52 |  |
| C[C@@H]1CCC[C@H](C)N1CCc1c[nH]c2ccc(OCc3ccccc3)cc12 [compound 14] | 6.10 |  |
| C[C@@H]1CCC[C@H](C)N1CCc1c[nH]c2ccc(-n3cc(CCN4[C@H](C)CCC[C@@H]4C)c4cc(Br)ccc43)cc12 [compound 32] | 6.17 |  |
| COc1ccc2[nH]cc(CCN3[C@@H](C)CCC[C@@H]3C)c2c1 (relative stereo) [compound 22] | 7.35 |  |
| C[C@@H]1CCC[C@H](C)N1CCc1c[nH]c2ccc(Cl)cc12 [compound 23] | 7.22 |  |
| CC1CCCCN1CCc1c[nH]c2ccccc12 (centres unmarked) [compound 25] | 6.77 |  |
| C[C@@H]1CCC[C@H](C)N1CCc1c[nH]c2ccccc12 [Example 2, 3-[2-(Cis-2,6-dimethylpiperidinyl)ethyl]indole hydrochloride] |  | 5.60 |

| Structure (SMILES) | pKi [1] | pKi [2] |
| --- | --- | --- |
| C[C@@H]1CCC[C@H](C)N1CCc1c[nH]c2ccc(C(N)=O)cc12 [compound 37] | 8.15 |  |
| C[C@@H]1CCC[C@H](C)N1CCc1c[nH]c2ccc(F)cc12 [compound 24] | 6.77 |  |
| COc1ccc2[nH]cc(CCN3[C@H](C)CCC[C@@H]3C)c2c1 [compound 10] | 8.00 |  |
| C[C@@H]1CCC[C@H](C)N1CCc1cn(C)c2ccc(Br)cc12 [compound 34] | 5.96 |  |
| COc1ccc2[nH]cc(CCN3[C@H](C)CCC[C@@H]3C)c2c1 [compound 9] | 7.89 |  |
| C[C@@H]1CCC[C@H](C)N1CCc1c[nH]c2ccc(O)cc12 [compound 12] | 7.82 |  |
| Cc1ccc(S(=O)(=O)n2cc(CCN3[C@H](C)CCC[C@@H]3C)c3cc(Br)ccc32)cc1 [compound 31] | 5.49 |  |
| CC1CC(C)N(CCc2c[nH]c3ccc(Cl)cc23)C(C)C1 (centres unmarked) [compound 38] | 6.18 |  |
| C[C@@H]1CCC[C@H](C)N1CCc1c[nH]c2ccc(Br)cc12 [Example 3, 3-[2-(Cis-2,6-dimethylpiperidinyl)ethyl]-5-bromoindole hydrochloride] |  | 5.89 |
| CC1(C)CCCC(C)(C)N1CCc1c[nH]c2ccccc12 [compound 39] | < 5.00 |  |
| C[C@H]1CCC[C@H](C)N1CCc1c[nH]c2ccc(O)cc12 (relative stereo) [compound 17] | 7.60 |  |
| C[C@@H]1CCC[C@H](C)N1CCc1c[nH]c2ccc(O)cc12 [compound 16] | 8.40 |  |
| C[C@H]1CCC[C@H](C)N1CCc1c[nH]c2ccc(OCc3ccccc3)cc12 (relative stereo) [compound 15] | 6.30 |  |
| COc1ccc2[nH]cc(CCN3[C@@H](C)CCC[C@@H]3C)c2c1 (relative stereo) [compound 20] | 6.35 |  |
| C[C@@H]1CCC[C@H](C)N1CCc1c[nH]c2ccc(CN)cc12 [compound 35] | 6.30 |  |
| CC1CC(C)N(CCc2c[nH]c3ccccc23)C(C)C1 (centres unmarked) [compound 26] | 6.04 |  |
